Experimental data as given in ChEMBL document CHEMBL1201862, “PubChem BioAssay data set” (2004).
Activity calls are given as the source filed them.

How the values were obtained:
[1] = molecular target: X-box-binding protein 1 (Homo sapiens, UniProt P17861); format: functional, Cricetulus griseus;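 further: confirmatory dose-response counter-screen serving a CHOP assay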
[2] = test system: BJ; experiment: cytotoxicity toward BJ-TERT-LT-ST fibroblasts, dose response, cell-based, RAS-independent, luminescence (AID 1935); format: functional; conditions: Homo sapiens;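 further: BJ fibroblasts immortalized with TERT plus LT and ST oncogenes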
[3] = test system: BJ; experiment: cells; format: functional, cell-based; conditions: Homo sapiens
[4] = cytotoxicity toward DRD oncogenic fibroblasts, dose response, cell-based, non-viral oncogenic, luminescence (AID 1934); format: functional; conditions: Homo sapiens
[5] = A Cell Based Secondary Assay To Explore Cytotoxicity of Compounds that Sensitize Mycobacterium Tuberculosis to Beta-Lactam Antibiotics.; format: functional
[6] = test system: BJ; experiment: cytotoxicity toward BJ-TERT fibroblasts, dose response, cell-based, RAS-independent, luminescence (AID 1933); format: functional; conditions: Homo sapiens
[7] = test system: INS1; experiment: beta cell apoptosis inhibitors, cytokine rescue, dose response, luminescence, retest (AID 449756); format: functional, cell-based; conditions: Rattus norvegicus;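 further: cell death triggered by IL-1 beta plus TNF-alpha plus IFN-gamma mixture; protective hits raise ATP signal compared with cytokine alone wells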
[8] = molecular target: G2/mitotic-specific cyclin-B1 (Homo sapiens, UniProt P14635); experiment: G2/M cell cycle arrest in HeLa, late-stage follow-up, mechanism study for Wee1 degradation inhibitor project, FACS, panel member Cyclin B Degradation (AID 2088)
[9] = molecular target: Wee1-like protein kinase (Homo sapiens, UniProt P30291); experiment: G2/M cell cycle arrest in HeLa, late-stage follow-up, mechanism study for Wee1 degradation inhibitor project, FACS, panel member Wee1 Degradation (AID 2088)
[10] = test system: HeLa; experiment: HeLa cell cytotoxicity, dose response, cytotoxicity control, 24 h, cherry-picked samples (AID 504726); format: functional, cell-based; conditions: Homo sapiens;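 further: potency for cytotoxicity as loss of luminescence signal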
[11] = molecular target: Acyl-homoserine lactone acylase PvdQ (Pseudomonas aeruginosa (strain LESB58), UniProt Q9I194); experiment: P. aeruginosa PvdQ acylase inhibitors, dose response, biochemical, fluorescence, plate reader and imaging, cherry-picks (AID 493231)
[12] = molecular target: Nonstructural protein 1 (Influenza A virus, UniProt Q194T2); format: functional, Influenza A virus (A/California/07/2009(H1N1))
[13] = molecular target: T1, Heat shock factor protein 1 (Mus musculus, UniProt P38532); experiment: inhibition of MG132-induced HSE-luciferase signal, confirmation, cell-based, NIH3T3, luminescence, dose retest (AID 2382); format: functional;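 further: NIH3T3 fibroblasts with HSF1-driven luciferase reporter stressed by proteasome inhibitor MG132; luminescence from HSF1-driven luciferase expression after 8 hours of MG132 stress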
T1 sequence (P38532 whole entry): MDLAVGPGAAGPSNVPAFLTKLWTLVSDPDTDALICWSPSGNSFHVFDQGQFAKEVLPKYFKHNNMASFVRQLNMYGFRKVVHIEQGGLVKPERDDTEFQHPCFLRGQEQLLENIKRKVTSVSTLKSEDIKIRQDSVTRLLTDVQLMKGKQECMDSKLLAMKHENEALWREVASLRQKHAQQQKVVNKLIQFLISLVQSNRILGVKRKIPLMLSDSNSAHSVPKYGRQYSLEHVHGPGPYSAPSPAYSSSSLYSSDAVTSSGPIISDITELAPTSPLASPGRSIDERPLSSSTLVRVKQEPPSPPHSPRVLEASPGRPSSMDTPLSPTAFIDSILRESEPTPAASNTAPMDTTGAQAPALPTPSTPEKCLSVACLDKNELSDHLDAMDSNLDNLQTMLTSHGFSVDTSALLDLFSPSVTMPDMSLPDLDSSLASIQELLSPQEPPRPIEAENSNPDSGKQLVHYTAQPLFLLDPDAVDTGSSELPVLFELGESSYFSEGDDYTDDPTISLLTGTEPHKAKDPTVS

[14] = Luminescence-based counterscreen assay for KLF5 inhibitors: dose response cell-based high throughput screening assay to identify cytotoxic compounds using the IEC-6 intestinal epithelial cell line. [Related pubchem assays: 1700 (Primary screen.), 1834 (Confirmation screen.), 1858 (Summary AID.), 1905 (Counterscreen.)]; format: functional
[15] = molecular target: Luciferin 4-monooxygenase (Photinus pyralis, UniProt P08659); experiment: Counter Screen for Luciferase-based Assay Positives. [Related pubchem assays: 620, 618, 411 ]
[16] = test system: HT-1080; experiment: cytotoxicity in HT1080 fibrosarcoma cells, cell-based, fluorescence readout (AID 620); format: functional; conditions: Homo sapiens

Wee1-like protein kinase, sequence (P30291 whole entry): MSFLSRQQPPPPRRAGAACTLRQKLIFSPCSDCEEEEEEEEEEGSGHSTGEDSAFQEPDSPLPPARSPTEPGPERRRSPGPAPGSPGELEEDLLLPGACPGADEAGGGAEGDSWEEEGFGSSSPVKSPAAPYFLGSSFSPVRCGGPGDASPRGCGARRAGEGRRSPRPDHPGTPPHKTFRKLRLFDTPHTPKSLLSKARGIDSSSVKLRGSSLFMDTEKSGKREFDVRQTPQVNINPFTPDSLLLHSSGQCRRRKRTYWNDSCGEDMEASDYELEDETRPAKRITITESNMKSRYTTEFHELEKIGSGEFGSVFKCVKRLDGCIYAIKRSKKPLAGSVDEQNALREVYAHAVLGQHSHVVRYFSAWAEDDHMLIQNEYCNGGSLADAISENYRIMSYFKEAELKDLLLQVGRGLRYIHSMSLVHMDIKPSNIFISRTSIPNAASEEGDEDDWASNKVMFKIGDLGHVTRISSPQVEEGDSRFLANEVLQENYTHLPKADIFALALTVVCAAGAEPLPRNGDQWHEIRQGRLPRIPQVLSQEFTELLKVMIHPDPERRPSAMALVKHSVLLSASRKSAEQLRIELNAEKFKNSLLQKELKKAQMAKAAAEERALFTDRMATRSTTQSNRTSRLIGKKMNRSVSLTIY
G2/mitotic-specific cyclin-B1, sequence (P14635 whole entry): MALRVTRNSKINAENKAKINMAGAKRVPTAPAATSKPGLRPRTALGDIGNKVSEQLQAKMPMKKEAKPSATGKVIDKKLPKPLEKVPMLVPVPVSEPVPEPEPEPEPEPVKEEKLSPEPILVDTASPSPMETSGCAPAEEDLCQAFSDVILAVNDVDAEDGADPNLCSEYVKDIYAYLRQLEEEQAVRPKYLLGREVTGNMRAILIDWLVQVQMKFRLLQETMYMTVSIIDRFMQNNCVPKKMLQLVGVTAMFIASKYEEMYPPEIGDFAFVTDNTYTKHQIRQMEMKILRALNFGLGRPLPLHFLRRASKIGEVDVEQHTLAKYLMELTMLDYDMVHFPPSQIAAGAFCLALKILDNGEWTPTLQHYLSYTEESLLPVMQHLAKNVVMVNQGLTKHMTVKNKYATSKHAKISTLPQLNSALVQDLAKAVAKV
Nonstructural protein 1, sequence (Q194T2 whole entry): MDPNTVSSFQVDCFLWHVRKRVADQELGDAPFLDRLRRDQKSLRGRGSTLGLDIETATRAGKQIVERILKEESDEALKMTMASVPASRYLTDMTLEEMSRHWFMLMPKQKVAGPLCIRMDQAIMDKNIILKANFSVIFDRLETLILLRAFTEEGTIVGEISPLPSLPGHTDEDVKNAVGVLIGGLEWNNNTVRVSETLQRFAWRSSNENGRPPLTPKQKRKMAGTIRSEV
Acyl-homoserine lactone acylase PvdQ, sequence (Q9I194 24-193 limits assumed): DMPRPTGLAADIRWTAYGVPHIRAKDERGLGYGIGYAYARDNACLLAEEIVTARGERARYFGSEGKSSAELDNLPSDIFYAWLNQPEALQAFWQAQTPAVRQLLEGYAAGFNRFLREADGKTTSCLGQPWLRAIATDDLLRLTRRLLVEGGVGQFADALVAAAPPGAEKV
Acyl-homoserine lactone acylase PvdQ, sequence (Q9I194 217-762 limits assumed): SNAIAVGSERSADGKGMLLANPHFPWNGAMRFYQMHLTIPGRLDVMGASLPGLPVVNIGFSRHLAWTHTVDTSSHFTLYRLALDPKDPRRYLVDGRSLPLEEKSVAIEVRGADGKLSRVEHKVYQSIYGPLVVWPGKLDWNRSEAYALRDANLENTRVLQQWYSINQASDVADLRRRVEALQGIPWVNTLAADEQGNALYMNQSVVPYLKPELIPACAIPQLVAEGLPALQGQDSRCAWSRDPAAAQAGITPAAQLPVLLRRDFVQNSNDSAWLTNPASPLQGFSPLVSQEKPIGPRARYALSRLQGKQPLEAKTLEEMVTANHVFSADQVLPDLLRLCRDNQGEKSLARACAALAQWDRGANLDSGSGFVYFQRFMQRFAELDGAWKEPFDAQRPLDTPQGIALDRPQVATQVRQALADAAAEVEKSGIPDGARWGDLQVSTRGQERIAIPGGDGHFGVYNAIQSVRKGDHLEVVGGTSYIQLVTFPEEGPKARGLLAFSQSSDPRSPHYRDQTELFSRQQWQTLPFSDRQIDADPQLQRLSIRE
Luciferin 4-monooxygenase, sequence (P08659 whole entry): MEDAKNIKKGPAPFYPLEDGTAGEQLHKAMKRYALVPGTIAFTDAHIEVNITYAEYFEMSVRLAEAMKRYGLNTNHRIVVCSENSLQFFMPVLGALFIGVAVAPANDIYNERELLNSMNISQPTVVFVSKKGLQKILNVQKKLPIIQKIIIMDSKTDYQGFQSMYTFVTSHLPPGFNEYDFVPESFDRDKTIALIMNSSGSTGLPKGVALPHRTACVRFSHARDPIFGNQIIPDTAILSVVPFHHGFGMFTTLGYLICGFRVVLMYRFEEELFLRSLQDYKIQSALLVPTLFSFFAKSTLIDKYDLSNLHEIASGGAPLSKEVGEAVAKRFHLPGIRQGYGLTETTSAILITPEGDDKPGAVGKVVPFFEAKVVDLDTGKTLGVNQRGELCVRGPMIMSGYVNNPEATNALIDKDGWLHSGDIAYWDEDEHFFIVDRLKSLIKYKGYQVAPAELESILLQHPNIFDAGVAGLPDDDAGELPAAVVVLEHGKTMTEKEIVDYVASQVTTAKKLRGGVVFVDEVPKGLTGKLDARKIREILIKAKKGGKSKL
X-box-binding protein 1, sequence (P17861 whole entry): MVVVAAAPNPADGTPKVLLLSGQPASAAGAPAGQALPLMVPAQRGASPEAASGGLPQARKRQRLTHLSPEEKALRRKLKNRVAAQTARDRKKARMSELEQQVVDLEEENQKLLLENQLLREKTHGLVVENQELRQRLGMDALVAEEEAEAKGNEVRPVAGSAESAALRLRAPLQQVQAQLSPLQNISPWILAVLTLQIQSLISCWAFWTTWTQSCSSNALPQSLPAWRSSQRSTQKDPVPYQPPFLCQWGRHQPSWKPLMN

For COc1cc(-c2nc3c(c(C)nn3-c3ccccc3)c3cc(OC)c(OC)cc23)ccc1O, which “Absolute IC50 (XBP1)” value [1] is on record?
Its value is 10 µM.

Which EC50 [2] does the source give for COc1nc(Nc2nc(O)c3ccccc3n2)nc2ccc(C)cc12 here?
The EC50 was 2.88 µM (inconclusive).

And the EC50 [3]?
The EC50 was 2.93 µM (active).

And the EC50 [4]?
The EC50 was 2.3 µM (active).

And the CC50 [5]?
Its CC50 is 3.83 µM (active).

What about the EC50 [6] of the same molecule?
Its EC50 is 2.6 µM (active).

And the AC50 [7]?
The AC50 was 1.31 µM (active).

Which EC50 [8] does the source give for Cc1cccc(NC(=O)COc2cc(=O)n(C)c3ccccc23)n1 here?
Its EC50 is > 49.7 µM (inactive).

And the EC50 [9]?
The EC50 was > 49.7 µM (inactive).

Which EC50 [8] does the source give for CCc1ccccc1NC(=O)CCCOc1cc(=O)n(C)c2ccccc12 here?
Its EC50 is > 49.7 µM (inactive).

And the EC50 [9]?
Its EC50 is > 49.7 µM (inactive).

With N=c1ccn(Cc2ccc(Cl)cc2)cc1 as the molecule, how does the AC50 [10] read?
The AC50 was 16.4 µM (active).

With Nc1ccc(OCc2ccccc2)cc1[N+](=O)[O-] as the molecule, how does the AC50 [11] read?
The AC50 was 12.5 µM (active).

And the IC50 [12]?
Its IC50 is 58.3 µM (active).

What does the source list for O=C(CCCc1ccccc1)c1ccc2c(c1)OCCO2?
EC50 [13]: < 0.16 µM (active); IC50 [14]: > 39.8 µM (not active); EC50 [15]: < 0.2 µM (active); EC50 [16]: > 50 µM (not active)

With C=CC[C@@H](CC(=O)N(CCO)Cc1ccccc1)C(=O)NC[C@H](OC(=O)[C@@H](CC=C)CC(=O)OC(C)(C)C)c1ccccc1 as the molecule, how does the AC50 [10] read?
Its AC50 is 57.2 µM (active).
